Key:
Assay in all cases: Test D preemergence
Type in all cases: in vivo
Conditions in all cases: scale 0 to 100
[1] = test system: Galium (catchweed bedstraw, Galium aparine)
How it was run: (§1)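 Percent control (0–100) estimated by eye relative to untreated plants roughly 21 d after preemergence treatment of seeds in silt loam soil.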

Kochia (Kochia scoparia) = test system: Kochia (Kochia scoparia)
How it was run: as §1

[2] = test system: Russian thistle (Salsola kali)
How it was run: as §1

[3] = test system: barley, spring (spring barley, Hordeum vulgare)
How it was run: as §1

[4] = test system: blackgrass (Alopecurus myosuroides)
How it was run: as §1

[5] = test system: bromegrass, downy (downy bromegrass, Bromus tectorum)
How it was run: as §1

[6] = test system: canarygrass (littleseed canarygrass, Phalaris minor)
How it was run: as §1

[7] = test system: chamomile (scentless chamomile, Matricaria inodora)
How it was run: as §1

[8] = test system: chickweed (common chickweed, Stellaria media)
How it was run: as §1

[9] = test system: deadnettle (henbit deadnettle, Lamium amplexicaule)
How it was run: as §1

[10] = test system: field poppy (Papaver rhoeas)
How it was run: as §1

[11] = test system: field violet (Viola arvensis)
How it was run: as §1

[12] = test system: foxtail, green (green foxtail, Setaria viridis)
How it was run: as §1

[13] = test system: mustard, wild (wild mustard, Sinapis arvensis)
How it was run: as §1

[14] = test system: oat, wild (wild oat, Avena fatua)
How it was run: as §1

[15] = test system: oilseed rape (Brassica napus)
How it was run: as §1

[16] = test system: pigweed (Amaranthus retroflexus)
How it was run: as §1

[17] = test system: radish, wild (wild radish, Raphanus raphanistrum)
How it was run: as §1

[18] = test system: ryegrass, Italian (Italian ryegrass, Lolium multiflorum)
How it was run: as §1

[19] = test system: wheat, spring (spring wheat, Triticum aestivum)
How it was run: as §1

[20] = test system: wheat, winter (winter wheat, Triticum aestivum)
How it was run: as §1

[21] = test system: windgrass (Apera spica-venti)
How it was run: as §1

CN1CC(c2cccc(C(F)(F)F)c2)C(C(=O)Nc2cccc(F)c2F)C1=O (centres unmarked) [Compound 636]
95: Plant response rating: Canarygrass ([6]; 250 g ai/ha) | Plant response rating: Field Poppy ([10]; 62 g ai/ha) | Plant response rating: Windgrass ([21]; 62 g ai/ha) | Plant response rating: Windgrass ([21]; 125 g ai/ha)
75: Plant response rating: Kochia (Kochia (Kochia scoparia); 125 g ai/ha) | Plant response rating: Kochia (Kochia (Kochia scoparia); 250 g ai/ha) | Plant response rating: Barley, Spring ([3]; 250 g ai/ha) | Plant response rating: Blackgrass ([4]; 250 g ai/ha) | Plant response rating: Deadnettle ([9]; 250 g ai/ha)
60: Plant response rating: Galium ([1]; 250 g ai/ha) | Plant response rating: Russian Thistle ([2]; 250 g ai/ha) | Plant response rating: Barley, Spring ([3]; 125 g ai/ha) | Plant response rating: Blackgrass ([4]; 125 g ai/ha) | Plant response rating: Oilseed Rape ([15]; 125 g ai/ha) | Plant response rating: Wheat, Winter ([20]; 62 g ai/ha)
70: Plant response rating: Deadnettle ([9]; 125 g ai/ha) | Plant response rating: Wheat, Winter ([20]; 125 g ai/ha)
30: Plant response rating: Galium ([1]; 125 g ai/ha) | Plant response rating: Blackgrass ([4]; 62 g ai/ha) | Plant response rating: Oat, Wild ([14]; 62 g ai/ha) | Plant response rating: Oilseed Rape ([15]; 62 g ai/ha)
55: Plant response rating: Barley, Spring ([3]; 62 g ai/ha) | Plant response rating: Bromegrass, Downy ([5]; 125 g ai/ha)
65: Plant response rating: Canarygrass ([6]; 31 g ai/ha) | Plant response rating: Oilseed Rape ([15]; 250 g ai/ha) | Plant response rating: Radish, Wild ([17]; 125 g ai/ha) | Plant response rating: Ryegrass, Italian ([18]; 125 g ai/ha) | Plant response rating: Wheat, Winter ([20]; 250 g ai/ha)
80: Plant response rating: Bromegrass, Downy ([5]; 250 g ai/ha) | Plant response rating: Oat, Wild ([14]; 125 g ai/ha) | Plant response rating: Ryegrass, Italian ([18]; 250 g ai/ha) | Plant response rating: Wheat, Spring ([19]; 250 g ai/ha)
50: Plant response rating: Russian Thistle ([2]; 125 g ai/ha) | Plant response rating: Pigweed ([16]; 125 g ai/ha)
0: Plant response rating: Galium ([1]; 31 g ai/ha) | Plant response rating: Russian Thistle ([2]; 31 g ai/ha) | Plant response rating: Deadnettle ([9]; 31 g ai/ha) | Plant response rating: Field Violet ([11]; 31 g ai/ha) | Plant response rating: Field Violet ([11]; 62 g ai/ha) | Plant response rating: Mustard, Wild ([13]; 31 g ai/ha) | Plant response rating: Pigweed ([16]; 31 g ai/ha)
10: Plant response rating: Bromegrass, Downy ([5]; 31 g ai/ha) | Plant response rating: Oilseed Rape ([15]; 31 g ai/ha) | Plant response rating: Pigweed ([16]; 62 g ai/ha)
35: Plant response rating: Barley, Spring ([3]; 31 g ai/ha) | Plant response rating: Deadnettle ([9]; 62 g ai/ha) | Plant response rating: Field Violet ([11]; 125 g ai/ha)
20: Plant response rating: Bromegrass, Downy ([5]; 62 g ai/ha) | Plant response rating: Wheat, Spring ([19]; 31 g ai/ha)
15: Plant response rating: Galium ([1]; 62 g ai/ha) | Plant response rating: Mustard, Wild ([13]; 62 g ai/ha) | Plant response rating: Mustard, Wild ([13]; 125 g ai/ha) | Plant response rating: Ryegrass, Italian ([18]; 31 g ai/ha)
45: Plant response rating: Wheat, Spring ([19]; 125 g ai/ha)
100: Plant response rating: Chamomile ([7]; 62 g ai/ha) | Plant response rating: Chamomile ([7]; 125 g ai/ha) | Plant response rating: Chamomile ([7]; 250 g ai/ha) | Plant response rating: Field Poppy ([10]; 125 g ai/ha) | Plant response rating: Field Poppy ([10]; 250 g ai/ha) | Plant response rating: Foxtail, Green ([12]; 31 g ai/ha) | Plant response rating: Foxtail, Green ([12]; 62 g ai/ha) | Plant response rating: Foxtail, Green ([12]; 125 g ai/ha) | Plant response rating: Foxtail, Green ([12]; 250 g ai/ha) | Plant response rating: Radish, Wild ([17]; 250 g ai/ha)
90: Plant response rating: Canarygrass ([6]; 125 g ai/ha) | Plant response rating: Chamomile ([7]; 31 g ai/ha) | Plant response rating: Chickweed ([8]; 125 g ai/ha) | Plant response rating: Chickweed ([8]; 250 g ai/ha) | Plant response rating: Field Poppy ([10]; 31 g ai/ha)
25: Plant response rating: Kochia (Kochia (Kochia scoparia); 62 g ai/ha) | Plant response rating: Blackgrass ([4]; 31 g ai/ha) | Plant response rating: Radish, Wild ([17]; 62 g ai/ha)
40: Plant response rating: Russian Thistle ([2]; 62 g ai/ha) | Plant response rating: Ryegrass, Italian ([18]; 62 g ai/ha) | Plant response rating: Wheat, Spring ([19]; 62 g ai/ha)
5: Plant response rating: Kochia (Kochia (Kochia scoparia); 31 g ai/ha) | Plant response rating: Oat, Wild ([14]; 31 g ai/ha) | Plant response rating: Wheat, Winter ([20]; 31 g ai/ha)
85: Plant response rating: Canarygrass ([6]; 62 g ai/ha) | Plant response rating: Chickweed ([8]; 31 g ai/ha) | Plant response rating: Chickweed ([8]; 62 g ai/ha) | Plant response rating: Field Violet ([11]; 250 g ai/ha) | Plant response rating: Mustard, Wild ([13]; 250 g ai/ha) | Plant response rating: Oat, Wild ([14]; 250 g ai/ha) | Plant response rating: Pigweed ([16]; 250 g ai/ha) | Plant response rating: Windgrass ([21]; 31 g ai/ha)
98: Plant response rating: Windgrass ([21]; 250 g ai/ha)

CN1CC(c2cccc(C(F)(F)F)c2)C(C(=O)Nc2ccccc2S(C)(=O)=O)C1=O (centres unmarked) [Compound 637]
80: Plant response rating: Foxtail, Green ([12]; 62 g ai/ha) | Plant response rating: Wheat, Spring ([19]; 125 g ai/ha)
0: Plant response rating: Galium ([1]; 31 g ai/ha) | Plant response rating: Kochia (Kochia (Kochia scoparia); 62 g ai/ha) | Plant response rating: Russian Thistle ([2]; 31 g ai/ha) | Plant response rating: Russian Thistle ([2]; 62 g ai/ha) | Plant response rating: Barley, Spring ([3]; 31 g ai/ha) | Plant response rating: Bromegrass, Downy ([5]; 31 g ai/ha) | Plant response rating: Canarygrass ([6]; 31 g ai/ha) | Plant response rating: Canarygrass ([6]; 62 g ai/ha) | Plant response rating: Chamomile ([7]; 31 g ai/ha) | Plant response rating: Chickweed ([8]; 31 g ai/ha) | Plant response rating: Deadnettle ([9]; 31 g ai/ha) | Plant response rating: Deadnettle ([9]; 62 g ai/ha) | Plant response rating: Field Violet ([11]; 31 g ai/ha) | Plant response rating: Field Violet ([11]; 62 g ai/ha) | Plant response rating: Field Violet ([11]; 125 g ai/ha) | Plant response rating: Field Violet ([11]; 250 g ai/ha) | Plant response rating: Oilseed Rape ([15]; 31 g ai/ha) | Plant response rating: Ryegrass, Italian ([18]; 31 g ai/ha) | Plant response rating: Ryegrass, Italian ([18]; 62 g ai/ha)
10: Plant response rating: Galium ([1]; 250 g ai/ha) | Plant response rating: Russian Thistle ([2]; 125 g ai/ha) | Plant response rating: Blackgrass ([4]; 31 g ai/ha) | Plant response rating: Blackgrass ([4]; 62 g ai/ha) | Plant response rating: Bromegrass, Downy ([5]; 62 g ai/ha) | Plant response rating: Windgrass ([21]; 31 g ai/ha)
25: Plant response rating: Bromegrass, Downy ([5]; 125 g ai/ha) | Plant response rating: Deadnettle ([9]; 125 g ai/ha) | Plant response rating: Windgrass ([21]; 62 g ai/ha)
45: Plant response rating: Blackgrass ([4]; 125 g ai/ha)
35: Plant response rating: Kochia (Kochia (Kochia scoparia); 125 g ai/ha)
85: Plant response rating: Kochia (Kochia (Kochia scoparia); 250 g ai/ha) | Plant response rating: Oat, Wild ([14]; 250 g ai/ha) | Plant response rating: Windgrass ([21]; 125 g ai/ha)
40: Plant response rating: Barley, Spring ([3]; 125 g ai/ha) | Plant response rating: Bromegrass, Downy ([5]; 250 g ai/ha) | Plant response rating: Oilseed Rape ([15]; 62 g ai/ha) | Plant response rating: Oilseed Rape ([15]; 125 g ai/ha) | Plant response rating: Wheat, Winter ([20]; 62 g ai/ha)
60: Plant response rating: Wheat, Winter ([20]; 125 g ai/ha)
50: Plant response rating: Russian Thistle ([2]; 250 g ai/ha) | Plant response rating: Blackgrass ([4]; 250 g ai/ha) | Plant response rating: Canarygrass ([6]; 125 g ai/ha)
100: Plant response rating: Field Poppy ([10]; 31 g ai/ha) | Plant response rating: Field Poppy ([10]; 62 g ai/ha) | Plant response rating: Field Poppy ([10]; 125 g ai/ha) | Plant response rating: Field Poppy ([10]; 250 g ai/ha) | Plant response rating: Foxtail, Green ([12]; 250 g ai/ha) | Plant response rating: Pigweed ([16]; 125 g ai/ha)
15: Plant response rating: Mustard, Wild ([13]; 125 g ai/ha) | Plant response rating: Mustard, Wild ([13]; 250 g ai/ha)
65: Plant response rating: Chickweed ([8]; 125 g ai/ha) | Plant response rating: Deadnettle ([9]; 250 g ai/ha) | Plant response rating: Oilseed Rape ([15]; 250 g ai/ha)
70: Plant response rating: Barley, Spring ([3]; 250 g ai/ha) | Plant response rating: Canarygrass ([6]; 250 g ai/ha) | Plant response rating: Wheat, Spring ([19]; 250 g ai/ha)
98: Plant response rating: Pigweed ([16]; 250 g ai/ha)
75: Plant response rating: Chickweed ([8]; 250 g ai/ha) | Plant response rating: Foxtail, Green ([12]; 31 g ai/ha) | Plant response rating: Oat, Wild ([14]; 125 g ai/ha) | Plant response rating: Wheat, Winter ([20]; 250 g ai/ha)
5: Plant response rating: Kochia (Kochia (Kochia scoparia); 31 g ai/ha) | Plant response rating: Chickweed ([8]; 62 g ai/ha) | Plant response rating: Mustard, Wild ([13]; 31 g ai/ha) | Plant response rating: Mustard, Wild ([13]; 62 g ai/ha) | Plant response rating: Wheat, Spring ([19]; 31 g ai/ha) | Plant response rating: Wheat, Winter ([20]; 31 g ai/ha)
30: Plant response rating: Galium ([1]; 125 g ai/ha) | Plant response rating: Oat, Wild ([14]; 62 g ai/ha) | Plant response rating: Wheat, Spring ([19]; 62 g ai/ha)
95: Plant response rating: Foxtail, Green ([12]; 125 g ai/ha) | Plant response rating: Windgrass ([21]; 250 g ai/ha)
90: Plant response rating: Chamomile ([7]; 125 g ai/ha) | Plant response rating: Chamomile ([7]; 250 g ai/ha) | Plant response rating: Pigweed ([16]; 62 g ai/ha) | Plant response rating: Radish, Wild ([17]; 250 g ai/ha)
20: Plant response rating: Galium ([1]; 62 g ai/ha) | Plant response rating: Barley, Spring ([3]; 62 g ai/ha) | Plant response rating: Oat, Wild ([14]; 31 g ai/ha) | Plant response rating: Pigweed ([16]; 31 g ai/ha) | Plant response rating: Radish, Wild ([17]; 62 g ai/ha) | Plant response rating: Radish, Wild ([17]; 125 g ai/ha) | Plant response rating: Ryegrass, Italian ([18]; 125 g ai/ha) | Plant response rating: Ryegrass, Italian ([18]; 250 g ai/ha)

Reference: patent publication US12077503B2, “Substituted cyclic amides and their use as herbicides” (FMC CORPORATION, priority 2015, dated 2024)
